According to patent publication US20100209959A1, “TUMOUR-CELL-FIXING CELLS” (UNIVERSITE PIERRE ET MARIE CURIE-PARIS VI, priority 2007, published 2010):

Key:
HL60 cells [1] = experiment: Proliferation of HL60 cells, free or fixed to hospicells, after exposure to AraC or DNR; format: cell-based, human; details: for living HL60 cells fixed to the hospicells during treatment / living free HL60 cells during treatment: 5 days' treatment; for living HL60 cells fixed to the hospicells during treatment / living HL60 cells on hospicells after the treatment is stopped: HL60 fixed to hospicells; for living HL60 cells on hospicells after the treatment is stopped / growth of free HL60 cells after the treatment is stopped: drug removed, fresh medium
Protocol: (§1) HL60 cells cultured with hospicells in RPMI medium were treated for 5 days with either aracytin (AraC) or daunorubicin (DNR).
After 5 days' treatment, the drug was removed and the cells were cultured again in fresh medium.
The number of living HL60 cells was measured throughout the experiment using the image analysis system.

hospicells = experiment: Toxicity of the drug for hospicells in HL60/hospicell co-culture; format: cell-based
Protocol: as §1
This effect of “regrowth” of the cells is greater with aracytin than with daunorubicin, the difference being linked to the toxicity of daunorubicin for the hospicells.

OVCAR3 cells = experiment: Chemoresistance of OVCAR3 cells co-cultured with hospicells (SRB assay); format: cell-based; details: verapamil 1.4 μM added, in the presence of carboplatin and paclitaxel
Protocol: Briefly, the hospicells were cultivated to 60% confluence. 2·10^4 OVCAR3 cells expressing GFP were then co-cultivated with the hospicells for 24 hours before being brought into contact with a chemotherapeutic agent (carboplatin 22.2 μM and paclitaxel 1.4 μM). The chemotherapeutic effect was determined with the aid of a quantitative colorimetric assay with sulforhodamine B (SRB) as described by Skehan et al. (1990) J. Natl. Cancer Inst. 82:1107-1112. The pink colour of the SRB was quantified by measuring the absorbance at 540 nm. For each condition, the mean cell density and the standard deviation were calculated from the data obtained for 6 wells. The experiments were repeated 3 times.
The role of the MDR proteins in the chemoresistance imparted by the hospicells was confirmed by repeating the above co-culture experiments of hospicells and OVCAR3 cells in the presence of carboplatin and paclitaxel, and adding to the culture medium verapamil (1.4 μM), an MDR1 protein inhibitor.

HL60 cells [2] = experiment: Adhesion of HL60 cells to hospicells; format: cell-based, human; details: HL60 incubated beforehand with agent; tumour cells/hospicells 5/1; 24 hours at 37° C.
Protocol: HL60 cells were incubated in RPMI medium under […]: • HL60 cells alone (control) • HL60 cells+anti-arrestin antibody (control antibody) • HL60 cells+RGD (Arg-Gly-Asp, integrin consensus sequence, which partially prevents integrin dependent adhesion) • HL60 cells+anti-CD11a antibody • HL60 cells+anti-CD49d antibody • HL60 cells+anti-CD11a antibody+anti-CD49d antibody • HL60 cells+anti-CD11a antibody+anti-CD49d antibody+RGD
For each condition, HL60 cells were deposited separately and in identical amounts in 6 different wells containing complete RPMI medium and fixing cells which had adhered to the support. The ratio between tumour cells and hospicells was 5/1. After incubation for 24 hours at 37° C., the HL60 cells that had not adhered were recovered and counted. The percentage of HL60 cells adhering to the hospicells was then calculated for each condition.

Compound	living HL60 cells fixed to the hospicells during treatment (HL60 cells [1])	living HL60 cells on hospicells after the treatment is stopped (HL60 cells [1])	effect of regrowth of the HL60 cells on hospicells, aracytin compared with daunorubicin (HL60 cells [1]; after the treatment is stopped)	living free HL60 cells during treatment (HL60 cells [1])	growth of free HL60 cells after the treatment is stopped (HL60 cells [1])	toxicity for the hospicells (hospicells)	chemoresistance imparted by the hospicells to the OVCAR3 cells (OVCAR3 cells)	adhesion of the HL60 cells to the hospicells (HL60 cells [2])
Nc1ccn([C@@H]2O[C@H](CO)[C@@H](O)[C@@H]2O)c(=O)n1 [AraC, aracytin]	no longer detectable	living HL60 cells are identifiable	greater	die	do not grow	–	–	–
COc1cccc2c1C(=O)c1c(O)c3c(c(O)c1C2=O)C[C@@](O)(C(C)=O)C[C@@H]3O[C@H]1C[C@H](N)[C@H](O)[C@H](C)O1 [DNR, daunorubicin]	no longer detectable	living HL60 cells are identifiable	–	die	do not grow	toxicity	–	–
COc1ccc(CCN(C)CCCC(C#N)(c2ccc(OC)c(OC)c2)C(C)C)cc1OC (stereo not drawn) [verapamil]	–	–	–	–	–	–	dramatically reduces	–
Arg-Gly-Asp [RGD]	–	–	–	–	–	–	–	partially blocks
